# Laboratory results taken from patent US20230381170A1, “METHOD FOR TREATING ALS/FTD THROUGH DEGRADATION OF RNA REPEAT EXPANSION” (University of Florida Research Foundation, Incorporated, priority 2020, published 2023).
# Experiments:
# Type in all cases: cell-based, human
# Poly(GP) = Poly(GP) by electrochemiluminescent immunoassay in patient-derived LCLs
# Description: Measuring Poly(GP) Levels by Electrochemiluminescence. LCLs were seeded in T-25 flash at 400,000 cells/mL in 5 mL of growth medium. After overnight incubation, the cells were treated with compound or ASO for 4 days at 37° C. After the treatment period, the cells were pelleted, and total protein was extracted by incubating with CoIP2 Buffer (50 mM Tris-HCL, pH 7.4, 300 mM NaCl, 5 mM EDTA, 1% (v/v) Triton-X 100, 2% (w/v) sodium dodecyl sulfate, and 0.01% (v/v) protease and phosphatase inhibitors) on ice for 5 min and then sonication (3 s intervals at 35% power for ˜40 s). Detergent was then removed using Pierce™ Detergent Removal Spin Columns following manufacturer's protocol. Protein concentration was measured by Pierce™ BCA Protein Assay Kit.
# Levels of poly(GP) were measured using Meso Scale Discovery MSD Gold 96-well Streptavidin SECTOR plates. Both capture and detection antibodies were generated using an anti-poly(GP) antibody kindly provided by the Target ALS Foundation. To serve as the capture antibody, the poly(GP) antibody was conjugated to biotin using EZ-Link™ Sulfo-NHS-LC-Biotin (Thermo Fisher) as per the manufacturer's protocol. To serve as the detection antibody, the poly(GP) antibody was sulfo-tagged using MSD GOLD SULFO-TAG NHS-Ester (Meso Scale Discovery) as per the manufacturer's protocol. The conjugated antibodies were desalted with 40K Zeba™ Spin Desalting Columns (Thermo Fisher Scientific), and their concentrations were determined by Pierce™ BCA Protein Assay Kit.
# Briefly, the plates were incubated with 2 μg/ml of anti-poly(GP)-biotin antibody at 4° C. overnight. The wells were then washed three times with 1×TBST [1×Tris-buffered saline (TBS) containing 0.1% (v/v) Tween-20] and blocked with 3% BSA in 1×TBST for 1 h at room temperature (with shaking). The blocking solution was removed, and the wells were washed 3 times with 150 μL of 1×TBST. […] After washing with 150 μL of 1×TBST three times, 1×MSD GOLD Read Buffer was added to each well, and electrochemiluminescence was measured using a SECTOR Imager (MSD). […]
# WT C9ORF72 protein = test: C9ORF72 expression by Western blotting; conditions: Western blot, relative to β-actin
# Description: Measuring C9ORF72 Expression Level by Western Blotting. Samples analyzed by Western blot were prepared as described in “Measuring poly(GP) Levels by Electrochemiluminescence”. Approximately 20 μg of total protein was separated on a 10% SDS-polyacrylamide gel, and then transferred to a PVDF membrane. The membrane was washed with 1×TBS and then blocked in 5% milk in 1×TBST for 1 h at room temperature. After washing with 1×TBST, C9orf72 antibody (GeneTex, GTX119776; 1:3000 dilution) was added in 1×TBST containing 5% milk overnight at 4° C. […] The membrane was washed with 1×TBST, and protein expression was quantified using SuperSignal West Pico Chemiluminescent Substrate (Pierce Biotechnology) per the manufacturer's protocol.
# To quantify β-actin expression, the membrane was stripped using 1× Stripping Buffer (200 mM glycine, pH 2.2 and 0.1% SDS) followed by washing in 1×TBST. […] The membrane was washed with 1×TBST and incubated with 1:10,000 anti-rabbit IgG horseradish-peroxidase secondary antibody conjugate (Cell Signaling Technology) in 1×TBST containing 5% (w/v) milk for 1 h at room temperature. β-actin protein expression was quantified using SuperSignal West Pico Chemiluminescent Substrate (Pierce Biotechnology) per the manufacturer's protocol. […].
# [1] = tested on: C9orf72 intron 1 harboring r(G4C2)exp; test: C9orf72 intron 1 RT-qPCR in patient-derived LCLs; conditions: disease-affected LCLs
# Description: Measuring Levels of C9orf72 and C9orf72 Variants by RT-qPCR. LCLs were seeded in 6-well plate (˜10^6 cells in 2 mL of growth medium) and incubated overnight at 37° C. Cells were then treated with various concentrations of compound for 24 h or with G4C2-ASO and Control-ASO (100 nM), delivered by transfection with Lipofectamine RNAiMax. RNA was extracted as described above and the expression of C9orf72 variants was determined by RT-qPCR. […] For compound treatment well, medium change was performed with fresh compound every 3-4 days. RNA was extracted as described above and the expression of C9orf72 variants was determined by RT-qPCR.
# [2] = tested on: C9orf72 intron 1 harboring r(G4C2)exp; test: C9orf72 intron 1 RT-qPCR in patient-derived iPSCs
# Description: iPSCs were treated for 4 days in Matrigel (356234, Corning) coated plates with mTeSR™1 feeder-free medium ([…] Technologies; Catalog #85850). Cells were treated in 6-well plates on day 1 and 3 with compounds diluted in 0.1% final DMSO.
# Measuring Levels of C9orf72 and C9orf72 Variants by RT-qPCR. LCLs were seeded in 6-well plate (˜10^6 cells in 2 mL of growth medium) and incubated overnight at 37° C. Cells were then treated with various concentrations of compound for 24 h or with G4C2-ASO and Control-ASO (100 nM), delivered by transfection with Lipofectamine RNAiMax. RNA was extracted as described above and the expression of C9orf72 variants was determined by RT-qPCR. For iPSC and iPSC-derived motor neuron cell line, the cells were seeded into Matrigel-coated 6-well plate to ˜60% confluence before treated with 3 μM C9orf72-ASO or Control-ASO and various concentrations of compound for 1 to 2 weeks. For compound treatment well, medium change was performed with fresh compound every 3-4 days. RNA was extracted as described above and the expression of C9orf72 variants was determined by RT-qPCR.
structure (smiles),measurement,setting,value
Cc1c2ccncc2c(C)c2c1[nH]c1ccc(OCCOCCOCCNCCOCCOCCOc3ccc4[nH]c5c(C)c6ccncc6c(C)c5c4c3)cc12 [Compound 3],Poly(GP) expression,"Poly(GP); 5, 50 and 500 nM for 4 days",dose-dependent decrease
same,WT C9ORF72 protein levels,WT C9ORF72 protein,no effect
same,C9orf72 intron 1 levels,[1],no effect
same,C9orf72 intron 1 levels,[2]; patient-derived iPSCs,no effect
CCOC(=O)C1=C(Nc2ccccc2)S/C(=C\c2ccc(OCCOCCOCCOCCNC(=O)CCC(=O)N(CCOCCOCCOc3ccc4[nH]c5c(C)c6ccncc6c(C)c5c4c3)CCOCCOCCOc3ccc4[nH]c5c(C)c6ccncc6c(C)c5c4c3)c(O)c2)C1=O [Compound 7],reduction of Poly(GP) levels,Poly(GP); 500 nM,71±11%
same,increase in potency over parent compound 3,Poly(GP); Poly(GP) in LCLs,5 fold
same,WT C9ORF72 protein levels,WT C9ORF72 protein,unchanged
same,reduction of r(G4C2)exp-containing intron 1 levels,[2]; 50 nM,45±11%
same,reduction of r(G4C2)exp-containing intron 1 levels,[2]; 500 nM,64±10%
